Earlier results in patent publication US8987322B2, “Pharmaceutical formulations for carrier-mediated transport statins and uses thereof” (Circ Pharma Research and Development Limited, priority 2003, dated 2015).

How the values were obtained:
[1] = like that found in the stomach
rat hepatocytes = conditions: White (2002), read-out: IC50, inhibition of sterol synthesis
[2] = not given; remark: listed apart in the source
[3] = not given; remark: listed apart in the source
HMG-CoA reductase = target: T1, HMG-CoA reductase (Homo sapiens, UniProt P04035)
T1 sequence (P04035 1-888): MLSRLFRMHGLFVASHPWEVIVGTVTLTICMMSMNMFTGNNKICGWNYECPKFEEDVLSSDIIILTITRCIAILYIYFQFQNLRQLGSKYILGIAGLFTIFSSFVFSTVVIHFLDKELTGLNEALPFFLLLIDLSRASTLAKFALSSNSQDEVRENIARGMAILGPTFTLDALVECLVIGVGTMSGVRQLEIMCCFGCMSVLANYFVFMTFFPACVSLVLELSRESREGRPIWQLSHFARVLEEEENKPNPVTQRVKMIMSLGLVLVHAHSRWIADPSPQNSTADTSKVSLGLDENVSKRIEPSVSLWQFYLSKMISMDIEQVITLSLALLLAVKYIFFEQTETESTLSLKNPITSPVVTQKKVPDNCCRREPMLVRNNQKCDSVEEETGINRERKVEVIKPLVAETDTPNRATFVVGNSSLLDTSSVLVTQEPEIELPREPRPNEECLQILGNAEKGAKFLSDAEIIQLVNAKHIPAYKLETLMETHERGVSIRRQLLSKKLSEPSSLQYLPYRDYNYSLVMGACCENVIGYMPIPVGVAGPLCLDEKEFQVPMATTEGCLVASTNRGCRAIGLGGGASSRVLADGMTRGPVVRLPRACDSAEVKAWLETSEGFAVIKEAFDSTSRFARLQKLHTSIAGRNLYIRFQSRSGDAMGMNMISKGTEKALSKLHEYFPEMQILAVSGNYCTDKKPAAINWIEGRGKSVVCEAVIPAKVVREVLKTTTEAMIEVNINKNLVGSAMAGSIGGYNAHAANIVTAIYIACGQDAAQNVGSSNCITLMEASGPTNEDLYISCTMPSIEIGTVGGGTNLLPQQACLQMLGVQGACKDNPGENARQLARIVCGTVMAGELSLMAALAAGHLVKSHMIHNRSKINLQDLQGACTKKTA

[4] = test system: LDL-C, HDL-C and triglyceride levels; conditions: Malinowski (1998)

| SMILES | stability in an acidic environment [1] | IC50 (rat hepatocytes) | adverse effect at high doses (80 mg and higher, phase III clinical trials) | tolerability in humans (doses ranging from 1 to 40 mg) | clearance through biliary excretion ([2]; Cheng-Lai (2003)) | excreted in the urine ([2]; Cheng-Lai (2003)) | hepatic extraction (share of the absorbed dose extracted by the liver) ([2]; Igel et al. (2002)) | dose dependence of Cmax and AUC ([2]; doses ranging from 5 to 80 mg) | elimination half-life (t1/2) ([2]; in vivo) | effect of food on absorption ([2]; presence of food) | water solubility class as defined in the U.S. Pharmacopeia (2002) [3] | share of the inhibitory activity due to the parent compound (HMG-CoA reductase; White (2002)) | reduction of LDL-C levels [4] | fraction of drug absorbed from the intestine taken up by the liver ([2]; first-pass) | fraction of orally administered drug absorbed from the intestine ([2]; oral) | systemic availability of active inhibitors (parent drug and its metabolites) ([2]; oral) | share of atorvastatin's inhibitory activity accounted for by its o-hydroxylated and p-hydroxylated metabolites (HMG-CoA reductase) | duration of HMG-CoA reductase inhibition (HMG-CoA reductase; due to the inhibitory activity of metabolites) |
| --- | --- | --- | --- | --- | --- | --- | --- | --- | --- | --- | --- | --- | --- | --- | --- | --- | --- | --- |
| CC[C@H](C)C(=O)O[C@H]1C[C@H](O)C=C2C=C[C@H](C)[C@H](CC[C@@H](O)C[C@@H](O)CC(=O)O)[C@H]21 [pravastatin] | unstable in an acidic environment | – | – | – | – | – | – | – | – | – | – | – | – | – | – | – | – | – |
| CC(C)c1nc(N(C)S(C)(=O)=O)nc(-c2ccc(F)cc2)c1/C=C/[C@@H](O)C[C@@H](O)CC(=O)O (single isomer, unassigned) [rosuvastatin] | stable in acidic environments | 0.16 nM | associated with myopathy | well tolerated | 90% | 10% | up to 90% | relatively linear relationship | 20 h | overall extent of absorption remains constant | sparingly soluble (“sparingly soluble” refers to an aqueous solubility that ranges from about 1/30 to about 1/100 (mg/ml)) | 90% | – | – | – | – | – | – |
| CC(C)c1c(C(=O)Nc2ccccc2)c(-c2ccccc2)c(-c2ccc(F)cc2)n1CC[C@@H](O)C[C@@H](O)CC(=O)O [atorvastatin] | – | – | – | – | – | – | – | – | – | – | – | – | 40-60% | ≥ 70% | about 30% | 30% | approximately 70% | 20 to 30 h |
